The text below walks through data of patent US20070197446A1, “MHC binding peptides and their uses” (ProImmune Limited, priority 2006, published 2007).

Among the targets are HLA-B*3501 (Homo sapiens, UniProt P01889, A329T/A93T/A95T/C349S/D201E/D98Y/E176V/E187L/E204Q/E69T/I218V/K202T/L119I/Q94N/R155S/R180L/S121R/S35A/S48A/T118I/V127L/V306I/V36M/Y140S/Y91F); HLA-A*0301 (Homo sapiens, UniProt P04439); HLA-A*0201 (Homo sapiens, UniProt P04439, D140Y/D185E/D98H/E176V/E277Q/G131W/G231S/I119V/I121R/I166T/I218V/L300P/L318F/N151K/N90K/P208A/P217A/Q86G/Q94H/R138H/R169H/T345S); HLA-B*0702 (Homo sapiens, UniProt P01889); HLA-B*0801 (Homo sapiens, UniProt P01889, A93T/A95T/D138N/E176V/E187T/K202T/Q94N/R180D/S35A/V36M/Y33D/Y91F); HLA-A*0101 (Homo sapiens, UniProt P04439, A114D/A174V/A182V/D101N/D185E/E176A/E190D/L180R/Q94H/R68K/S129P/T187R/V100A/V91M/W191G).

What all share (format): binding

For the sequence KKHNGKLCD [SEQ ID NO: 41], at HLA-B*3501, the “ELISA (Absorption-Pass/Fail Control)” value is on record as −0.05.

For “ILRGSVAHK (T cell epitope) [SEQ ID NO: 5, reference compound]”, in the test with HLA-A*0301, the “ELISA (Absorption-Pass/Fail Control)” value was determined as 1.19 and the “efficiency of binding to HLA-A*0301 (in words)” value was “high efficiency”.

As for MEKNVTVTH [SEQ ID NO: 20], the “ELISA (Absorption-Pass/Fail Control)” value at HLA-A*0201 is on record as −0.02.

Consider AIVSLVKSD [SEQ ID NO: 14], for which the “ELISA (Absorption-Pass/Fail Control)” value at HLA-A*0201 amounted to 0.43.

On to AGWLLGNPM [SEQ ID NO: 42], for which, at HLA-B*3501, the “ELISA (Absorption-Pass/Fail Control)” value was −0.06.

On to LVKSDQICI [SEQ ID NO: 29], for which the “ELISA (Absorption-Pass/Fail Control)” value is recorded as −0.06 on HLA-B*0702 and 0.04 on HLA-B*3501.

In the case of NVPEWSYIV [SEQ ID NO: 25], at HLA-A*0201, the “ELISA (Absorption-Pass/Fail Control)” value turned out to be 1.03.

As to FAIVSLVKS [SEQ ID NO: 13], the “ELISA (Absorption-Pass/Fail Control)” value on HLA-A*0201 was found to be 0.07.

As for LFAIVSLVK [SEQ ID NO: 40], on HLA-B*3501, the “ELISA (Absorption-Pass/Fail Control)” value came out at 0.10.

In the case of SLVKSDQIC [SEQ ID NO: 16], the “ELISA (Absorption-Pass/Fail Control)” value on HLA-A*0201 was 0.09; at HLA-B*3501, −0.03.

Take “TPRVTGGGAM (T cell epitope) [SEQ ID NO: 6, reference compound]”: in the test with HLA-B*0702, the “ELISA (Absorption-Pass/Fail Control)” value is reported as 0.88 and the “efficiency of binding to HLA-B*0702 (in words)” value is listed as “high efficiency”.

HANNSTEQV [SEQ ID NO: 17]: the “ELISA (Absorption-Pass/Fail Control)” value on HLA-A*0201 and on HLA-B*3501 was 0.43 each time.

As for AQDILEKKH [SEQ ID NO: 21], at HLA-A*0201, the “ELISA (Absorption-Pass/Fail Control)” value was determined as 0.15.

“HPVGEADYFEY (T cell epitope) [SEQ ID NO: 8, reference compound]”: in the test with HLA-B*3501, the “ELISA (Absorption-Pass/Fail Control)” value is 0.55 and the “efficiency of binding to HLA-B*3501 (in words)” value was “high efficiency”.

On to IVSLVKSDQ [SEQ ID NO: 15], for which the “ELISA (Absorption-Pass/Fail Control)” value on HLA-A*0201 was 0.04.

KPLILRDCS [SEQ ID NO: 35]: on HLA-B*0801, the “ELISA (Absorption-Pass/Fail Control)” value turned out to be 0.10.

Take DTIMEKNVT [SEQ ID NO: 32]: the “ELISA (Absorption-Pass/Fail Control)” value on HLA-B*0801 is 0.08.

Take PLILRDCSV [SEQ ID NO: 36]: the “ELISA (Absorption-Pass/Fail Control)” value at HLA-B*0801 is 0.65.

Consider YIVEKANPV [SEQ ID NO: 26], for which the “ELISA (Absorption-Pass/Fail Control)” value is recorded as 1.02 on HLA-A*0201, 0.11 at HLA-B*0702 and 0.32 at HLA-B*0801.

Consider PMCDEFINV [SEQ ID NO: 24], for which the “ELISA (Absorption-Pass/Fail Control)” value at HLA-A*0201 was 0.98.

On to VTHAQDILE [SEQ ID NO: 33], for which the “ELISA (Absorption-Pass/Fail Control)” value at HLA-B*0801 stood at 0.31.

For the sequence LILRDCSVA [SEQ ID NO: 23], the figures for the “ELISA (Absorption-Pass/Fail Control)” value on HLA-A*0201 and at HLA-B*0801 were 0.57 and 0.07, respectively.

With VSLVKSDQI [SEQ ID NO: 31], the “ELISA (Absorption-Pass/Fail Control)” value at HLA-B*0801 was found to be 0.36.

For NVTVTHAQD [SEQ ID NO: 27], the “ELISA (Absorption-Pass/Fail Control)” value at HLA-A*0301 was −0.04; on HLA-B*0801, 0.08.

Take LLFAIVSLV [SEQ ID NO: 12]: at HLA-A*0201, the “ELISA (Absorption-Pass/Fail Control)” value amounted to 1.06.

As for FINVPEWSY [SEQ ID NO: 10], the “ELISA (Absorption-Pass/Fail Control)” value is given as 0.16 on HLA-A*0101 and 0.57 on HLA-B*3501.

For the sequence TIMEKNVTV [SEQ ID NO: 18], the “ELISA (Absorption-Pass/Fail Control)” value on HLA-A*0201 is listed as 0.99; on HLA-B*0702, 0.00; on HLA-B*0801 it was 0.80.

With VLLFAIVSL [SEQ ID NO: 11], at HLA-A*0201, the “ELISA (Absorption-Pass/Fail Control)” value is 0.47.

For the sequence DILEKKHNG [SEQ ID NO: 34], the “ELISA (Absorption-Pass/Fail Control)” value on HLA-B*0801 is on record as 0.53.

Take KLCDLDGVK [SEQ ID NO: 22]: the “ELISA (Absorption-Pass/Fail Control)” value on HLA-A*0201 was determined as 0.20; at HLA-A*0301, 1.16.

As for ILEKKHNGK [SEQ ID NO: 28], the “ELISA (Absorption-Pass/Fail Control)” value was −0.01 on HLA-A*0301 and 0.95 at HLA-B*0801.

For “YSEHPFTSQY (T cell epitope) [SEQ ID NO: 2, reference compound]”, in the test with HLA-A*0101, the “ELISA (Absorption-Pass/Fail Control)” value is 0.58 and the “efficiency of binding to HLA-A*0101 (in words)” value is recorded as “high efficiency”.

GNPMCDEFI [SEQ ID NO: 39]: on HLA-B*0801, the “ELISA (Absorption-Pass/Fail Control)” value is reported as 0.04.

For the sequence IMEKNVTVT [SEQ ID NO: 19], at HLA-A*0201, the “ELISA (Absorption-Pass/Fail Control)” value was 0.02.

With VAGWLLGNP [SEQ ID NO: 37], the “ELISA (Absorption-Pass/Fail Control)” value on HLA-B*0801 stood at 0.04.

With ILRDCSVAG [SEQ ID NO: 30], at HLA-B*0702, the “ELISA (Absorption-Pass/Fail Control)” value was 0.03.

Regarding LGNPMCDEF [SEQ ID NO: 43], the “ELISA (Absorption-Pass/Fail Control)” value on HLA-B*3501 is listed as 0.35.

WLLGNPMCD [SEQ ID NO: 38]: the “ELISA (Absorption-Pass/Fail Control)” value on HLA-B*0801 came to 0.03.

For the sequence KSDQICIGY [SEQ ID NO: 9], the “ELISA (Absorption-Pass/Fail Control)” value at HLA-A*0101 stood at 0.47; on HLA-A*0301 it was 0.05.
